The subject of test [1] is MB49 (transitional epithelial cancer) cells. In words: Adriamycin sensitivity of MB49 cells, WST-8 assay. It counts as cell-based. The settings on record: 48 hours. The protocol: After 48 hours of cultivation, the supernatant was removed by WST-8 assay, 100 μl of a cell counting kit solution, previously diluted 10 fold with RPMI medium, was added, and the plate was allowed to stand at 37° C. for 1.5 hours. Absorbance at 450 nm was determined using a microplate reader. Assuming the absorbance of a sample of MB49 cells only to be 100% survival rate, the survival rates at various concentrations were calculated.
A general note: Tetrazolium dyes change colour on reduction, which living cells bring about.

Test [2] relates to MB49 cells. As to the kind of experiment: Concurrent administration of MB49 cells, HVJ-E and ADM into the bladder. The test is classed as in vivo, mouse. The settings on record: two weeks. As for the experimental part:
Three 6-week-old female C57BL/6Cr Slc mice per group were anesthetized by administering a mixture of 90 μl of ketamine (50 mg) and 10 μl of xylazine (2% solution) to the left femoral muscle, a 24G catheter was inserted into the bladder, 100 μl of each of the following sample solutions was administered using a 1-ml syringe, and the catheter was indwelled for 1 hour.
The groups established are as follows:
The number of MB49 cells administered was 5×10^6 cells. After adjustment to a final volume of 100 μl, each solution was administered into the bladder. Two weeks later, the bladder was extirpated, and sections were prepared and stained with HE.

Test [3] deals with MB49 cells. As to the kind of experiment: MB49 cell-inoculated mouse model (intradermal), tumor volume. The test is classed as in vivo. The source says:
This experimental model can be prepared in accordance with, for example, a method described in Anticancer Res., 2004, 24(4):2225-30, and the like.

A further test deals with CT-26 tumor tissue. As to the kind of experiment: HE and CD-4/CD-8 immunohistological staining of tumor tissue. It counts as in vivo, mouse. The settings on record: 9 days after CDDP administration; single dosing. The source says:
(Study 5) To evaluate the infiltration of CD-4, CD-8, neutrophils, macrophage and the like in the tumor tissues examined in the study of the antitumor effect of the antitumor immunity, the following test groups were established, and tumor tissues were extirpated 9 days after administration of CDDP and subjected to immunohistological staining.
2-9) The tumor tissue was frozen in liquid nitrogen in preparation for staining the tumor tissue. The tumor tissue was cut into sections 8 μm in thickness using a cryostat. The tissue sections were fixed in −20° C. cold acetone for 15 minutes. After the sections were washed with water, endogenous avidin-biotin blocking was performed, and the sections were washed with water. The sample was reacted with normal rabbit serum and 50-fold diluted primary antibody [anti-mouse CD8a rat antibody (Ly-Z; Pharmingen) or anti-mouse CD4a rat antibody (L3T4; Pharmingen)] at 4° C. overnight. After the sample was washed with 7.5 mM Tris buffer solution (pH 7.5), it was reacted with 300-fold diluted anti-rat biotin-labeled rabbit Ig (DAKO) for 30 minutes. After the sample was washed with 9.5 mM Tris buffer solution (pH 7.5), it was reacted with 100-fold diluted streptoavidin for 30 minutes. After the sample was washed with 11.5 mM Tris buffer solution (pH 7.5), a color was developed with Fast Red. […]

The test system of another test is CT-26 cells. In words: CTL assay using radiolabeled chromium with splenocytes of treated mice. It counts as cell-based, mouse. The note with it: E/T ratio 80; CT-26 inoculated mice; HVJ-E/BLM 3 dosing where given. As for the experimental part:
To determine whether or not the antitumor immunity effect observed in the previous study was due to the induction of CT26 cell-specific antitumor immunity, splenocytes recovered from animals were stimulated with CT26 cells, and a CTL assay using radiolabeled chromium was performed to determine whether or not CT26-specific antitumor immunity had been induced.
In this study, (1) a CT-26 cell non-inoculation group, (2) a CT-26 cell-alone inoculation group, (3) a CT-26 cell inoculation+CDDP administration group, and (4) a CT-26 cell inoculation+CDDP+HVJ-E/BLM 3 dosing group were established and tested.
The spleen was extirpated from each anesthetized animal and recovered in a Petri dish (6 cm in diameter) containing 3 ml of RPMI solution. The spleen tissue was squashed between the frosted portions of two sterile glass slides, splenocytes were separated from the coat to the maximum possible extent, and the debris was removed through meshes. After 7 ml of PRMI solution was added, the cells were centrifuged at 1200 rpm for 10 minutes, and the supernatant was removed. […] The cells obtained from this operation were counted. […]
Actual CTL assay was performed with the ratio of effector cells (E) and target cells (T), E/T ratio, set at 80, […] 40, 20, 10, and 5. In this operation, 100 μl of target cells (1×10^5 cells/ml) were added to make a total quantity of 200 μl. […]

In test [4] the test system is CT-26 mouse colon cancer cells. In words: Antitumor effect of cisplatin (CDDP) and HVJ-E in combination, CT-26 tumors. It counts as in vivo. The settings on record: HVJ-E alone, CDDP 1 mg/kg, physiological saline. As for the experimental part:
CT-26 mouse colon cancer cells were intradermally inoculated into the backs of BALB/c mice at 5×10^6 cells/head. Five days after the inoculation, treatment with HVJ-E and CDDP was started in the following animal groups. For each animal group, tumor volume was calculated as major diameter×minor diameter×minor diameter/2.
• #1: Physiological saline group • #2: HVJ-E alone • #3: CDDP 1 mg/kg • #4: CDDP 3 mg/kg • #5: CDDP 1 mg/kg+HVJ-E (5,000 HAU) • #6: CDDP 3 mg/kg+HVJ-E (5,000 HAU) • (n=5 or 6 for each group) (Results)

Test [5] relates to CT-26 cells derived from mouse colon cancer. In words: Antitumor effect on transplanted CT-26 tumors in cancer-bearing mice (tumor volume, remission). The test is classed as in vivo. The note with it: Study 1, 21 days after treatment, single dose; for mean tumor volume: mean of five animals, BLM 6.5 μg/tumor intratumoral, CDDP 0.2 mg/body i.p.
Experimental: CT-26 cells derived from mouse colon cancer (5×10^6 cells) were intradermally transplanted to the backs of 8-week-old male BALB/cAnNCrj mice to yield cancer-bearing mice. Five days after the transplantation, 0.2 mg/body Platocin Injection (cisplatin, CDDP) was intraperitoneally administered to animals wherein the tumor diameter (major diameter) had reached about 5 mm. Following this administration, HVJ-E containing or not containing an anticancer drug (bleomycin hydrochloride [BLM]: Nippon Kayaku Co., Ltd.) and the like were administered into the tumor in a single dose (on the day after administration of cisplatin) or in multiple doses (3 times: 1, 5, and 8 days after administration of cisplatin). Tumor diameters, survival curves, and immune reactions in the tumor tissue were evaluated.
(Study 1) The groups described below were established, and the antitumor effects of treatment for transplanted tumors was evaluated.
For modeling, (1) a control group, (2) an HVJ-E group, (3) a BLM-alone group, (4) an HVJ-E/BLM group, (5) a CDDP-alone group, and (6) a CDDP HVJ-E/BLM single dosing group were established; tumor volumes were measured 21 days after each treatment, and the influence on the antitumor effect was examined.
(Study 2) In an attempt to further enhance the antitumor effect of the (single) treatment by single dosing of CDDP HVJ-E/BLM given in Study 1, HVJ-E/BLM was administered in multiple doses (3 times) (Study 2-1). […] (Study 2-1)
Tumor volumes were examined 21 days after treatment for (1) a control group, (2) a CDDP HVJ-E/BLM single dosing group (single treatment), and (3) a CDDP HVJ-E/BLM 3 dosing group.
After completion of the quarantine and habituation, animals were shaven with clippers. The tumor cell suspension at 100 μL/site (5×10^6 cells/body) was administered intradermally to the backs of 59 mice using a disposable syringe and injection needle (26 G). On the day following the administration, the same administration was performed on 57 animals (non-recipient animals).
Tumor diameters (major diameter, minor diameter) were measured 5 days after transplantation (not measured after grouping). Five days later, animals having a tumor diameter (major diameter) of about 5 mm were grouped by stratified randomization to obtain a nearly uniform distribution of mean tumor diameters (major diameters).
For the CDDP administration group, a single-dose intraperitoneal administration (1000 μl) was performed using a disposable injection syringe and injection needle. […]
The day of administration was taken as Day 0 after administration. On Days 3, 6, 9, 12, 15, 18, and 21 after administration, all animals had their tumor diameters measured, and tumor volume (major diameter×minor diameter×minor diameter÷2) was calculated.

The values below come from patent US7871765B2, “Composition having antitumor effect” (priority 2004, dated 2011).

Take `COc1cccc2c1C(=O)c1c(O)c3c(c(O)c1C2=O)C[C@@](O)(C(=O)CO)C[C@@H]3O[C@H]1C[C@H](N)[C@H](O)[C@H](C)O1` [ADM, adriamycin]: the survival rate was determined as 60.1% in test [1] (ADM 0.004 μg/ml); 54% in test [1] (ADM 0.008 μg/ml); 34.9% in test [1] (ADM 0.063 μg/ml); 27.6% in test [1] (ADM 0.125 μg/ml); 22.6% in test [1] (ADM 0.25 μg/ml); 17.2% in test [1] (ADM 0.5 μg/ml). For the same molecule, the survival rate was determined as 11.7% in test [1] (ADM 1 μg/ml) and 6.7% in test [1] (ADM 2 μg/ml). The molecule further returned an LD50 concentration in test [1] (MB49 cells, WST-8) of 0.008 µg/mL. Also, in test [1] (MB49 cells, WST-8), the LD90 concentration is 1 µg/mL. Also, in the test on MB49 cells [2] (ADM 0.008 μg/ml, with or without HVJ-E 5000 HAU (Groups 1, 2)), the “infiltration of MB49 cells into the bladder” value is reported as “all animals showed evidence of infiltration of MB49 cells”. Also, in the test with MB49 cells [2] (Group 3: ADM 1 μg/ml), the “animals in which infiltration of MB49 cells could not be prevented” value is given as 80%. Further, in the test with MB49 cells [3] (ADM alone (20 or 100 μg)), the tumor suppressing effect entry was “a tumor suppressing effect was observed”. Also, the tumor eradication result in the test on MB49 cells [3] (ADM alone (20 or 100 μg), tumor diameter 7-8 mm) was “eradication was not observed”. In addition, the tumor volume in the test on MB49 cells [3] (G2: ADM 20 μg x3 into tumor, Day 0) came to 128.4 mm^3; with MB49 cells [3] (G2: ADM 20 μg x3 into tumor, Day 5), 303.2 mm^3; in the test on MB49 cells [3] (G2: ADM 20 μg x3 into tumor, Day 7), 330 mm^3; with MB49 cells [3] (G2: ADM 20 μg x3 into tumor, Day 9) it was 324.9 mm^3; with MB49 cells [3] (G2: ADM 20 μg x3 into tumor, Day 12), 331.74 mm^3; with MB49 cells [3] (G2: ADM 20 μg x3 into tumor, Day 15), 443.36 mm^3. The tumor volume in the test on MB49 cells [3] (G2: ADM 20 μg x3 into tumor, Day 19) is given as 773.88 mm^3; with MB49 cells [3] (G2: ADM 20 μg x3 into tumor, Day 21), 1022.48 mm^3; in the test on MB49 cells [3] (G3: ADM 100 μg x3 into tumor, Day 0) it was 119 mm^3; in the test on MB49 cells [3] (G3: ADM 100 μg x3 into tumor, Day 5) it was 285.8 mm^3; in the test on MB49 cells [3] (G3: ADM 100 μg x3 into tumor, Day 7) it was 291.2 mm^3; in the test with MB49 cells [3] (G3: ADM 100 μg x3 into tumor, Day 9), 333.9 mm^3. The tumor volume came to 426.88 mm^3 in the test with MB49 cells [3] (G3: ADM 100 μg x3 into tumor, Day 12); 450.76 mm^3 in the test with MB49 cells [3] (G3: ADM 100 μg x3 into tumor, Day 15); 989.52 mm^3 with MB49 cells [3] (G3: ADM 100 μg x3 into tumor, Day 19); 1220.44 mm^3 in the test with MB49 cells [3] (G3: ADM 100 μg x3 into tumor, Day 21).
With `[NH2][Pt]([NH2])([Cl])[Cl]` [CDDP, cisplatin], the “pathological findings in tumor tissue (HE staining)” value in the test with CT-26 tumor tissue is “tumor cell necrotic signs were observed over a wide range of the tumor tissue”. For the same molecule, the “% specific Cr release” value in the test on CT-26 cells is on record as 12.9%. The “order of regression effect” value in test [4] (cell-derived HVJ-E study) was “greater in the order of the physiological saline group, HVJ-E-alone administration group, and CDDP 1 mg/kg administration group”. In test [4] (egg-derived HVJ-E study), the “tumor volume compared among groups” value was “no major difference was observed”. In test [5], the mean tumor volume turned out to be 387 mm^3 and the “mean tumor volume relative to control group as 100%” value was 23.2%.
As for bleomycin hydrochloride [BLM], the “pathological findings in tumor tissue (HE staining)” value in the test with CT-26 tumor tissue is “Generally similar findings”. In test [5], the mean tumor volume is reported as 1303 mm^3 and the “mean tumor volume relative to control group as 100%” value worked out at 80.0%.
